Two compounds from patent publication US20160318844A1, “PROSTACYCLIN COMPOUNDS, COMPOSITIONS AND METHODS OF USE THEREOF” (Insmed Incorporated, priority 2015, published 2016) can be followed below.

The test system of one series is CHO-K1 cells. In words: CHO-K1 cell proliferation assay (Presto Blue). Particulars: for Effect on cell proliferation, CHO-K1 Cells: detectable cell inhibition: Table 9, unformulated alkyl esters, (0.195 μM-25 μM), 48 hour incubation. As to the method:
CHO-K1 cells were harvested when the cell monolayer was 50-90% confluent (use passage 4-11). Media was aspirated out of the flask, and cells were rinsed with 2 mL of F12 media. Next, 1 mL of pre-warmed (37° C.) 0.25% trypsin-EDTA (Life Technologies, Cat#: 25300054) was added, and cells were dislodged from the flask by tapping it on the side. Complete growth media (F12 (Life Technologies, Cat #: 31765092)+10% FBS (Hyclone, Cat #: SH30071.03)+1× Pen-Strep (Life Technologies, cat #15140-122) was then added at a volume of 10 mL. Cells were centrifuged at 250×g for 5 minutes at room temperature, and the media was aspirated. The cell pellet was resuspended in 10 mL complete growth media. Cell number was determined using a hemacytometer. Cells were then seeded at 2000 cells per well of a 96-well plate in 100 μL of complete growth media. The plate was incubated overnight at 37° C. and 5% CO2 in a water-jacketed incubator.
The next day, 80 μL of fresh complete media was added to each well, and CHO-K1 cells were challenged with treprostinil compound and composition treatments. The working solutions were prepared at 10× concentration, and following 2 fold serial dilutions, 20 μL aliquots were added per well to arrive at a final 1× concentration. Following a 48 hour incubation at 37° C. and 5% CO2 in a water-jacketed incubator, the inhibitory effect on cell proliferation was determined. Plates were analyzed using 20 μL of Presto Blue reagent (Life Technologies, cat #: A13262) per well. The reagent was mixed, and plates were incubated for 1 hour at 37° C. and 5% CO2 in a waterjacketed incubator. Plates were read using either a CytoFluor Series 4000 (PerSeptive BioSystems) or Synergy Neo microplate reader (BioTek) with emission λ: 590 nm and excitation λ: 560 nm. […]
CHO-K1 cells were challenged with treprostinil alkyl esters, i.e., TR compounds of Formula (A), having the following R2 groups: […]
C2, C3, C4, C5, C6, C8, C10 or C12 straight chain alkyl, at dosages ranging from 0.098 μM to 25 μM. Following a 48 hour incubation period, the inhibitory effect on cell proliferation was determined.
Following a 72 hour incubation period, the inhibitory effect on cell proliferation was determined. Following a 48 hour incubation period, the inhibitory effect on cell proliferation was determined. […]

Another series in a line: physchem. The conditions noted are these: organic solvent or mixture, thermodynamic from solid. The procedure:
Selected treprostinil derivatives were evaluated for the use in a metered dose inhaler (MDI).
5 mg of each treprostinil compound was added in a glass bottle. Specific amount of ethanol was added by weight. An MDI valve was crimped to each bottle, and HFA propellant added through the valve to the total volume of 5 mL. Compounds were allowed to dissolve for 24 hours at room temperature. The formulations were assessed visually for solubility. The goal was to estimate the minimum ethanol concentration required to solubilize each compound in propellant.
Soluble samples presented as clear and colorless solutions. […] Non-soluble samples had white precipitate or crystals formed. Ethanol was added as a solubility aid.

Another series concerns beagle dogs. Kind of series: Clinical signs in dogs after inhalation. Particulars: targeted dose of 18 μg/kg. The procedure: Dosimetry was performed in propofol-anesthetized dogs in which nebulized drugs were introduced into a mixing chamber interposed on the inspiratory limb of a canine respirator. Technical trials were performed before each experiment to measure the concentration of drug (μg/L) delivered for each breath. The inhaled drug dose (μg/kg) was calculated using the formula: Inhaled Drug Dose (μg/kg)=Drug Conc. (μg/L)×Minute Ventilation (L/min.)×Time (min.)/Body Weight (kg). […] Clinical signs were monitored over this 72 hr. period.
Dosimetry was performed in propofol-anesthetized, artificially ventilated dogs in which nebulized drugs were introduced into a mixing chamber interposed on the inspiratory limb of the respirator. Technical trials were performed before each experiment measuring the concentration of drug (μg/L) per breath, minute ventilation and time required to achieve a targeted pulmonary dose. […] Clinical signs (cough, rapid shallow breathing, emesis and pale gums) were also monitored.

SMILES strings stand for the structures.

For `CCCCCCCCOC(=O)COc1cccc2c1C[C@H]1C[C@@H](O)[C@H](CC[C@@H](O)CCCCC)[C@H]1C2` [Compound C8-TR, treprostinil octyl ester], the “Effect on cell proliferation, CHO-K1 Cells: detectable cell inhibition” value with CHO-K1 cells turned out to be 25 µM. For the same compound, in the series with CHO-K1 cells (unformulated alkyl esters, highest concentration, 48 hour), the “inhibition of CHO-K1 cell proliferation” value is recorded as “showed inhibition of cell proliferation”.
In the case of `CCCCCCCCCCCCOC(=O)COc1cccc2c1C[C@H]1C[C@@H](O)[C@H](CC[C@@H](O)CCCCC)[C@H]1C2` [Compound C12-TR, dodecyl-treprostinil], the “Effect on cell proliferation, CHO-K1 Cells: detectable cell inhibition” value in the series on CHO-K1 cells is given as “No detectable cell inhibition”. Also, the solubility at 24 h in “physchem” (Solubility in HFA-134a with added ethanol) and in “physchem” (Solubility in HFA-227 with added ethanol) was more than 1000 µg/mL in each case. Besides, in the series with beagle dogs, the adverse clinical signs entry was “Adverse clinical signs were seen”.

Broadly, the solubility is how much of the substance goes into solution per volume.
